pIC50: −log10 of the molar value. Values after ≈ are worked out from the molar mass of the structure shown. Like-named read-outs stand apart in the source and are kept apart here.
Tests used:
[1] = system: S. aureus (SA38); test: Minimum inhibitory concentration (MIC) assay against S. aureus; assay type: cell-based, Staphylococcus aureus
Description: (§1) The antimicrobial activity of the compounds was evaluated by MIC assay using the procedure described by Clinical and Laboratory Standards Institute (CLSI). A single colony of bacteria was cultured overnight in trypticase soy broth (TSB; Oxoid, Basingstoke, UK) at 37 °C with shaking. The resulting bacterial culture was collected by centrifugation and resuspended in TSB twice. The optical density (OD) of the resulting culture was adjusted to OD660 = 0.1 in TSB (which is equivalent to 10^8 colony forming unit (CFU)/mL bacteria). It was further diluted to 10^6 CFU/mL in TSB. 100 µL of the bacterial solution was then added to wells of a 96-well plate (Costar; Sigma-Aldrich, St Louis, MO, USA) containing 100 µL serially diluted peptide mimic, with final concentration ranging from 1 to 250 µM. Wells with bacteria but no compound were used as negative control while wells with only media were set as blank. The plates were then wrapped with parafilm to prevent evaporation and incubated with shaking at 120 rpm at 37 °C for 18–24 h, and the data were recorded by measuring the OD value at 660 nm using a FLUOstar Omega (BMG Labtech, Mornington, Victoria, Australia) microplate reader. […] Each experiment was performed in triplicate and was repeated in three independent experiments.

[2] = system: MRC-5 normal human lung fibroblasts; test: MTT toxicity assay; assay type: cell-based; conditions: 72 h drug incubation, read-out: IC50 against MRC-5 normal human lung fibroblasts
Description: The toxicity of the compounds was measured using an MTT (3-(4,5-dimethylthiazol-2-yl)-2,5-diphenyltetrazolium bromide) (Sigma Aldrich, St Louis, MO, USA) colorimetric assay against normal human lung fibroblasts MRC-5 cells. The cells were cultured in minimal essential medium (MEM; Sigma Aldrich, St Louis, MO, USA) containing 10% foetal bovine serum (FBS). The cells were maintained at 37 °C in 5% CO2 as an adherent monolayer and was passaged upon reaching confluence by standard cell culture techniques. MRC-5 cells were seeded at 5000 cells/well in 96-well plates to ensure full confluence (quiescence) and left overnight to adhere to the plate wells. The adherent cells were treated with 1–500 µM of compounds by dissolving in DMSO and serially diluting with media. The final concentration of DMSO was 0.5% (v/v). After 72 h drug incubation, […] stock MTT solution (5 mg/mL) was added and the cells were incubated for another 3.5–4 h. MTT solution-containing media was carefully aspirated without displacing the purple crystals from the bottom and […] acid-isopropanol was added to all wells and mixed slowly by shaking with an orbital shaker to dissolve the dark blue crystals. The metabolic activity was detected by spectrophotometric analysis by assessing the read absorbance (590/620 nm) on an EnSight plate reader (PerkinElmer, Waltham, MA, USA) and cell viability was expressed as a percentage of untreated control cells. The determination of IC50 values was performed using GraphPad Prism 6 (GraphPad, San Diego, CA, USA). Each experiment was performed in triplicate and was repeated in three independent experiments.

[3] = system: P. aeruginosa (PA01); test: Minimum inhibitory concentration (MIC) assay against P. aeruginosa; assay type: cell-based; conditions: Pseudomonas aeruginosa
Description: as §1

[4] = system: E. coli (K12); test: Minimum inhibitory concentration (MIC) assay against E. coli; assay type: cell-based; conditions: Escherichia coli
Description: as §1

[5] = system: established S. aureus biofilms; test: Biofilm disruption assay (crystal violet staining), S. aureus; assay type: cell-based, Staphylococcus aureus; conditions: any tested concentration (1×, 2× and 4× MIC), 24 h treatment
Description: Bacterial cultures (S. aureus and E. coli) were grown in Muller Hinton broth (MHB; Oxoid, Basingstoke, UK) media overnight at 37 °C with shaking at 120 rpm. Cultures were diluted (1:20) in MHB medium and 200 µL aliquots were dispensed to wells in a flat bottom 96-well plate (Costar; Sigma-Aldrich, St Louis, MO, USA). Biofilm was then grown in the 96-well plate at 37 °C overnight. After that, loosely bound cells were washed away with 1x phosphate-buffered saline (PBS) and cultures were then supplemented with different concentrations of test compounds dissolved in DMSO and incubated for a further 24 h with shaking at 120 rpm. Biofilms adhered on the plate substratum were quantified using crystal violet staining as described previously. The experiment was performed in triplicate.

Row | MIC [1] | MIC ([1]; Staphylococcus aureus) | Structure (SMILES) | pIC50 ([2]; Homo sapiens, MRC5, 72 h) | other results
1 | 24 µM (≈ 12 µg/mL) | – | CCCCCCCCS(=O)(=O)Nc1ccc(-c2ccccc2)cc1C(=O)C(=O)NCCCN(C)C [Compound 11a, N-(3-(Dimethylamino)propyl)-2-(4-(octylsulfonamido)-[1,1’-biphenyl]-3-yl)-2-oxoacetamide] | > 4.52 | pIC50 [2]: 4.55
2 | 63 µM (≈ 30.3 µg/mL) | – | CCCCCCCCS(=O)(=O)Nc1ccc(CCCC)cc1C(=O)C(=O)NCCCN(C)C [Compound 11e, 2-(5-Butyl-2-(octylsulfonamido)phenyl)-N-(3-(dimethylamino)propyl)-2-oxoacetamide] | – | –
3 | – | 16 µM | CCCCCCCCS(=O)(=O)Nc1ccc(-c2ccccc2)cc1C(=O)C(=O)NCCCN(C)C [Compound 13a, N,N-Dimethyl-3-(2-(4-(octylsulfonamido)-[1,1’-biphenyl]-3-yl)-2-oxoacetamido)propan-1-aminium chloride] | – | pIC50 [2]: 4.60
4 | – | 16 µM | CCCCCCCCS(=O)(=O)Nc1ccc(-c2ccc(F)cc2)cc1C(=O)C(=O)NCCCN(C)C [Compound 13b, 3-(2-(4’-Fluoro-4-(octylsulfonamido)-[1,1’-biphenyl]-3-yl)-2-oxoacetamido)-N,N-dimethylpropan-1-aminium chloride] | – | –
5 | – | 16 µM | CCCCCCCCS(=O)(=O)Nc1ccc(-c2ccc(Cl)cc2)cc1C(=O)C(=O)NCCCN(C)C [Compound 13c, 3-(2-(4’-Chloro-4-(octylsulfonamido)-[1,1’-biphenyl]-3-yl)-2-oxoacetamido)-N,N-dimethylpropan-1-aminium chloride] | 4.59 | –
6 | – | 32 µM | CCCCCCCCS(=O)(=O)Nc1ccc(CCCC)cc1C(=O)C(=O)NCCCN(C)C [Compound 13e, 3-(2-(5-Butyl-2-(octylsulfonamido)phenyl)-2-oxoacetamido)-N,N-dimethylpropan-1-aminium chloride] | 4.63 | –
7 | – | 16 µM | CCCCCCCCS(=O)(=O)Nc1ccc(CCCC)cc1C(=O)C(=O)NCCC[N+](C)(C)C [Compound 15e, 3-(2-(5-Butyl-2-(octylsulfonamido)phenyl)-2-oxoacetamido)-N,N,N-trimethylpropan-1-aminium iodide] | 4.00 | MIC [3]: > 250 µM; MIC [4]: > 250 µM

More lines, now with the values behind:

Row | Structure (SMILES) | MIC [1] | MIC ([1]; Staphylococcus aureus) | pIC50 ([2]; Homo sapiens, MRC5, 72 h) | other results
8 | CCCCCCCCS(=O)(=O)Nc1ccc(-c2ccc(F)cc2)cc1C(=O)C(=O)NCCCN(C)C [Compound 11b, N-(3-(Dimethylamino)propyl)-2-(4’-fluoro-4-(octylsulfonamido)-[1,1’-biphenyl]-3-yl)-2-oxoacetamide] | 16 µM (≈ 8.31 µg/mL) | – | – | –
9 | CCCCCCCCS(=O)(=O)Nc1ccc(-c2ccc(Cl)cc2)cc1C(=O)C(=O)NCCCN(C)C [Compound 11c, 2-(4’-Chloro-4-(octylsulfonamido)-[1,1’-biphenyl]-3-yl)-N-(3-(dimethylamino)propyl)-2-oxoacetamide] | 16 µM (≈ 8.58 µg/mL) | – | – | –
10 | CCCCCCCCS(=O)(=O)Nc1ccc(-c2ccc3ccccc3c2)cc1C(=O)C(=O)NCCCN(C)C [Compound 11d, N-(3-(Dimethylamino)propyl)-2-(5-(naphthalen-2-yl)-2-(octylsulfonamido)phenyl)-2-oxoacetamide] | 16 µM (≈ 8.83 µg/mL) | – | – | –
11 | CCCCS(=O)(=O)Nc1ccc(-c2ccccc2)cc1C(=O)C(=O)NCCCN(C)C [Compound 12a, 2-(4-(Butylsulfonamido)-[1,1’-biphenyl]-3-yl)-N-(3-(dimethylamino)propyl)-2-oxoacetamide] | – | > 250 µM | – | –
12 | CCCCCCCCS(=O)(=O)Nc1ccc(-c2ccc3ccccc3c2)cc1C(=O)C(=O)NCCCN(C)C [Compound 13d, N,N-Dimethyl-3-(2-(5-(naphthalen-2-yl)-2-(octylsulfonamido)phenyl)-2-oxoacetamido)propan-1-aminium chloride] | – | 8 µM | – | pIC50 [2]: 4.71
13 | CCCCS(=O)(=O)Nc1ccc(-c2ccccc2)cc1C(=O)C(=O)NCCCN(C)C.Cl [Compound 14a, 3-(2-(4-(Butylsulfonamido)-[1,1’-biphenyl]-3-yl)-2-oxoacetamido)-N,N-dimethylpropan-1-aminium chloride] | > 250 µM | – | – | –
14 | CCCCCCCCS(=O)(=O)Nc1ccc(-c2ccccc2)cc1C(=O)C(=O)NCCC[N+](C)(C)C [Compound 15a, N,N,N-Trimethyl-3-(2-(4-(octylsulfonamido)-[1,1’-biphenyl]-3-yl)-2-oxoacetamido)propan-1-aminium iodide] | – | 16 µM | 4.29 | MIC [3]: 125 µM; MIC [4]: 32 µM
15 | CCCCCCCCS(=O)(=O)Nc1ccc(-c2ccc(F)cc2)cc1C(=O)C(=O)NCCC[N+](C)(C)C [Compound 15b, 3-(2-(4’-Fluoro-4-(octylsulfonamido)-[1,1’-biphenyl]-3-yl)-2-oxoacetamido)-N,N,N-trimethylpropan-1-aminium iodide] | – | 16 µM | 3.72 | MIC [3]: 63 µM; MIC [4]: 32 µM
16 | CCCCS(=O)(=O)Nc1ccc(-c2ccccc2)cc1C(=O)C(=O)NCCC[N+](C)(C)C [Compound 16a, 3-(2-(4-(Butylsulfonamido)-[1,1’-biphenyl]-3-yl)-2-oxoacetamido)-N,N,N-trimethylpropan-1-aminium iodide] | – | > 250 µM | – | –
17 | CCCCCCCCS(=O)(=O)Nc1ccc(-c2ccc(Cl)cc2)cc1C(=O)C(=O)NCCCNC(=N)N.Cl [Compound 22c, 2-(4’-Chloro-4-(octylsulfonamido)-[1,1’-biphenyl]-3-yl)-N-(3-guanidinopropyl)-2-oxoacetamide hydrochloride] | – | 8 µM | 4.02 | MIC [3]: 250 µM; MIC [4]: 63 µM; disruption of preformed S. aureus biofilms [5]: failed to disrupt any
18 | CN(C)CCCNC(=O)C(=O)c1cc(-c2ccccc2)ccc1NC(=O)c1ccc2ccccc2c1.Cl [Compound 26, 3-(2-(4-(2-Naphthamido)-[1,1’-biphenyl]-3-yl)-2-oxoacetamido)-N,N-dimethylpropan-1-aminium chloride] | > 250 µM | – | – | –
19 | C[N+](C)(C)CCCNC(=O)C(=O)c1cc(-c2ccccc2)ccc1NC(=O)c1ccc2ccccc2c1 [Compound 27, 3-(2-(4-(2-Naphthamido)-[1,1’-biphenyl]-3-yl)-2-oxoacetamido)-N,N,N-trimethylpropan-1-aminium iodide] | – | 32 µM | – | –
